Experimental data reported in patent publication US20250025454A1 (priority 2021, published 2025).

Key:
[1] = tested on: SARS-CoV-2; details: 35 compounds tested
[2] = tested on: SARS-CoV-2/WA1; format: cell-based; details: Severe acute respiratory syndrome coronavirus 2, HeLa-ACE2
[3] = tested on: SARS-CoV-2; assay: microbe, parasite or virus in culture; details: Severe acute respiratory syndrome coronavirus 2, HeLa-ACE2, 24 h
[4] = in vitro; details: human, EC50, compound toxicity in the context of infection, total cell numbers per well; average±sem of 5 independent experiments

Compound	activity in the HeLa-ACE2 cell-based SARS-CoV-2 assay [1]	IC50 [2] [nM]	EC50 [3] [nM]	EC50 [4] [nM]
Cc1c2c(nn1C)CSCc1cc(n(C)n1)CSc1cc(c3ccccc3c1)OCCCc1c(C(=O)O)n(C)c3c-2c(Cl)ccc13 [AZD-5991]	demonstrated activity	–	–	–
COc1cc(Cl)cc(C(C)Nc2cc(N3CCNCC3)ccc2S(C)(=O)=O)c1OC.Cl (stereo not shown) [PRX-07034]	demonstrated activity	–	–	–
CNCc1ccc(-c2cc(-c3nc(-c4ccc(S(=O)(=O)C(C)C)cc4)cnc3N)on2)cc1 [berzosertib, reference compound]	demonstrated activity	110	114	–
COc1ccc(C[C@H](N)C(=O)N[C@H]2[C@@H](O)[C@H](n3cnc4c(N(C)C)ncnc43)O[C@@H]2CO)cc1 [puromycin]	–	–	–	547 ± 27
Nc1ncnc2c1nc(Cl)n2[C@@H]1O[C@@H]2COP(=O)(O)O[C@H]2[C@H]1O [tocladesine]	demonstrated activity	–	–	–
